Experimental data from the CheMixHub viscosity set.
± gives the uncertainty stated by the source.

Test: xn = mol fraction of the nth substance listed

Brc1ccc(Br)cc1 + CC(C)O
viscosity [mPa·s], 101 kPa
Details | 298.15 K | 303.15 K | 308.15 K | 313.15 K | 318.15 K
x1 = 0.02851 | 1.945 ± 0.05 | 1.682 ± 0.043 | 1.476 ± 0.038 | 1.307 ± 0.033 | 1.16 ± 0.03
x1 = 0.04384 | – | 1.663 ± 0.042 | 1.47 ± 0.037 | 1.291 ± 0.033 | 1.142 ± 0.029

Cc1cccc(O)c1 + C1COCCO1
308.15 K, 101 kPa
Details | viscosity [mPa·s]
x2 = 0.1 | 6.346 ± 0.076
x2 = 0.2 | 5.28 ± 0.064
x2 = 0.3 | 4.391 ± 0.054
x2 = 0.4 | 3.412 ± 0.042
x2 = 0.5 | 2.693 ± 0.033
x2 = 0.6 | 2.138 ± 0.027
x2 = 0.7 | 1.711 ± 0.021
x2 = 0.8 | 1.407 ± 0.018
x2 = 0.9 | 1.235 ± 0.016

CCCCC(CC)COP(=O)(O)OCC(CC)CCCC (configuration not stated) + CCCCCCCCO
viscosity [mPa·s], 101 kPa
Details | 303.15 K | 313.15 K | 323.15 K
x1 = 0.0433 | 6.599 ± 0.27 | 4.84 ± 0.2 | 3.531 ± 0.14
x1 = 0.0469 | 6.819 ± 0.15 | – | –
x1 = 0.073 | 6.889 ± 0.15 | – | –
x1 = 0.0919 | 7.065 ± 0.28 | 5.143 ± 0.21 | 3.719 ± 0.15
x1 = 0.1008 | 7.185 ± 0.16 | – | –
x1 = 0.1474 | 7.624 ± 0.31 | 5.504 ± 0.22 | 3.942 ± 0.16
x1 = 0.1532 | 7.958 ± 0.17 | – | –
x1 = 0.2125 | 8.316 ± 0.34 | 5.948 ± 0.24 | 4.214 ± 0.17
x1 = 0.276 | 9.907 ± 0.21 | – | –
x1 = 0.288 | 9.17 ± 0.37 | 6.493 ± 0.26 | 4.545 ± 0.18
x1 = 0.3227 | 10.59 ± 0.23 | – | –
x1 = 0.377 | 10.25 ± 0.41 | 7.177 ± 0.29 | 4.957 ± 0.2
x1 = 0.4481 | 12.38 ± 0.27 | – | –
x1 = 0.4848 | 11.66 ± 0.47 | 8.068 ± 0.33 | 5.489 ± 0.22
x1 = 0.5519 | 13.89 ± 0.31 | – | –
x1 = 0.6176 | 13.58 ± 0.55 | 9.263 ± 0.37 | 6.195 ± 0.25
x1 = 0.6183 | 14.78 ± 0.33 | – | –
x1 = 0.7209 | 16.04 ± 0.36 | – | –
x1 = 0.7843 | 16.27 ± 0.65 | 10.92 ± 0.44 | 7.162 ± 0.29
x1 = 0.8137 | 17.09 ± 0.39 | – | –
x1 = 0.922 | 18.4 ± 0.42 | – | –

C[N+](=O)[O-] + CS(C)=O
viscosity [mPa·s], 101.3 kPa
Details | x2 = 0.1135 | x2 = 0.117 | x2 = 0.2337 | x2 = 0.2468 | x2 = 0.432 | x2 = 0.4324 | x2 = 0.5837 | x2 = 0.5943 | x2 = 0.812 | x2 = 0.8156
298 K | 0.726 ± 0.01 | – | 0.823 ± 0.011 | – | 1.014 ± 0.013 | – | – | 1.229 ± 0.016 | 1.613 ± 0.021 | –
318 K | – | 0.5753 ± 0.022 | – | 0.6471 ± 0.024 | – | 0.7717 ± 0.028 | 0.8878 ± 0.032 | – | – | 1.12 ± 0.039
